These results are taken from ChEMBL document CHEMBL5360667, “Carboxylic Acid-Containing Indanyl Compounds as S1P5 Modulators for Treating Neurodegenerative Diseases” (ACS Med Chem Lett, 2023).

Chain of Sphingosine 1-phosphate receptor 5 (Homo sapiens) (Q9H228 whole entry): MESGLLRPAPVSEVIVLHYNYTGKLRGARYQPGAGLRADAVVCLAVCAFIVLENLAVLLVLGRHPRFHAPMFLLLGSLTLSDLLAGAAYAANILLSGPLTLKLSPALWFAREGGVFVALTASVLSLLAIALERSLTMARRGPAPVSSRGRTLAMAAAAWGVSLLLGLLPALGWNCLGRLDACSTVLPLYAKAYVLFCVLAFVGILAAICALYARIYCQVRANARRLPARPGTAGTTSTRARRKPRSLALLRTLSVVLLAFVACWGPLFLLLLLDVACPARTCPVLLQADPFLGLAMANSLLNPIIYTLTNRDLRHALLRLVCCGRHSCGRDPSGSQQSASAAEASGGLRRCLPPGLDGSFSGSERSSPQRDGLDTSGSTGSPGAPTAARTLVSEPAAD

The test has as its target Sphingosine 1-phosphate receptor 5 (Homo sapiens) (UniProt Q9H228). In words: Agonist activity at recombinant S1P5 (unknown origin) expressed in CHO cell membranes assessed as increase in [35S]GTPgammaS binding preincubated for 30 mins followed by [35S]GTPgammaS addition and measured after 40 mins by microbeta scintillation counter analysis. It is filed as functional. The settings on record: Membrane, filed as agonist, time 70.0 min. In general terms: Binding of GTPγS marks nucleotide exchange on a G protein.
Consider `O=C(O)C1CN(C2CCc3cc(OCc4ccc(C5CC5)c(C(F)(F)F)c4)ccc32)C1` (stereo unspecified), for which the EC was determined as 1 nM.
Turning to `Cc1cc(OCc2c(Cl)cccc2Cl)cc2c1C(N1CCC(C(=O)O)CC1)CC2` (stereo unspecified), the EC was < 1 nM.
Regarding `O=C(O)C1CCN(C2CCc3c2ccc(OCc2c(Cl)cccc2Cl)c3F)CC1` (stereo unspecified), the EC is < 1 nM.
As for `O=C(O)C1CN(C2CCc3cc(OCc4cc(F)c(F)cc4F)ccc32)C1` (stereo unspecified), the EC came out at 1 nM.
Then `Cc1c(OCc2c(Cl)cccc2Cl)ccc2c1CCC2N1CCC(C(=O)O)CC1` (stereo unspecified), with < 1 nM.
Then `CC(C)Oc1ccc(COc2ccc3c(c2)CCC3N2CC(C(=O)O)C2)cc1C(F)(F)F` (stereo unspecified), with 1 nM.
